One assay concerns the target JAK3 (Homo sapiens (Human), UniProt P52333). Briefly: Biochemical JAK kinase assay (LanthaScreen), JAK3. To be noted: read-out: JAK3 pKi (converted). The method, then: A panel of four LanthaScreen JAK biochemical assays (JAK1, 2, 3 and Tyk2) were carried in a common kinase reaction buffer (50 mM HEPES, pH 7.5, 0.01% Brij-35, 10 mM MgCl2, and 1 mM EGTA). Recombinant GST-tagged JAK enzymes and a GFP-tagged STAT1 peptide substrate were obtained from Life Technologies.
Serially diluted compounds were pre-incubated with each of the four JAK enzymes and the substrate in white 384-well microplates (Corning) at ambient temperature for 1 h. ATP was subsequently added to initiate the kinase reactions in 10 μL total volume, with 1% DMSO. The final enzyme concentrations for JAK1, 2, 3 and Tyk2 are 4.2 nM, 0.1 nM, 1 nM, and 0.25 nM respectively; the corresponding Km ATP concentrations used are 25 μM, 3 μM, 1.6 μM, and 10 μM; while the substrate concentration is 200 nM for all four assays. Kinase reactions were allowed to proceed for 1 hour at ambient temperature before a 10 μL preparation of EDTA (10 mM final concentration) and Tb-anti-pSTAT1 (pTyr701) antibody (Life Technologies, 2 nM final concentration) in TR-FRET dilution buffer (Life Technologies) was added. The plates were allowed to incubate at ambient temperature for 1 h before being read on the EnVision reader (Perkin Elmer). Emission ratio signals (520 nm/495 nm) were recorded and utilized to calculate the percent inhibition values based on DMSO and background controls.
For dose-response analysis, percent inhibition data were plotted vs. compound concentrations, and IC50 values were determined from a 4-parameter robust fit model with the Prism software (GraphPad Software). Results were expressed as pIC50 (negative logarithm of IC50) and subsequently converted to pKi (negative logarithm of dissociation constant, Ki) using the Cheng-Prusoff equation.
Test compounds having a lower Ki value or higher pKi value in the four JAK assays show greater inhibition of JAK activity.
On the technique in general: TR-FRET usually uses a lanthanide donor and a delayed reading to cut background.

The test system of assay [1] is IL-13 induced STAT6 phosphorylation in BEAS-2B human lung epithelial cells. Briefly: Cellular JAKI potency assay (BEAS-2B). The assay is classed as cell-based. The note with it: Homo sapiens, BEAS-2B, BEAS-2B cells, read-out: BEAS2B pIC50 (converted). The method in brief: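 AlphaLISA SureFire detection of Tyr641 pSTAT6 in lysates gave IC50s (4-parameter fit, expressed as pIC50). Cells: human BEAS-2B, exposed 1 h at 37 °C to compound dose series at 0.1% DMSO, then 30 min to IL-13 added at 80 ng/mL in HEPES-buffered HBSS with BSA.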

The next assay concerns the target JAK1 (Homo sapiens (Human), UniProt P23458). Description: Biochemical JAK kinase assay (LanthaScreen), JAK1. To be noted: for Ki: read-out: JAK1 pKi (converted). The method in brief: (§1)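 LanthaScreen format: phospho-STAT1 (pTyr701) detected with 2 nM Tb antibody after 10 mM EDTA quench. Kinase step used Km-level ATP and 200 nM STAT1 peptide, 1 h at ambient after 1 h pre-incubation. Inhibition fitted to IC50, reported as pKi.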

Another assay has as its target JAK2 (Homo sapiens (Human), UniProt O60674). Briefly: Biochemical JAK kinase assay (LanthaScreen), JAK2. To be noted: for Ki: read-out: JAK2 pKi (converted). An outline of the steps: as §1
In another assay the target is TYK2 (Homo sapiens (Human), UniProt P29597). Briefly: Biochemical JAK kinase assay (LanthaScreen), Tyk2. The note with it: read-out: Tyk2 pKi (converted). The method in brief: as §1
Chain of TYK2 (P29597 whole entry): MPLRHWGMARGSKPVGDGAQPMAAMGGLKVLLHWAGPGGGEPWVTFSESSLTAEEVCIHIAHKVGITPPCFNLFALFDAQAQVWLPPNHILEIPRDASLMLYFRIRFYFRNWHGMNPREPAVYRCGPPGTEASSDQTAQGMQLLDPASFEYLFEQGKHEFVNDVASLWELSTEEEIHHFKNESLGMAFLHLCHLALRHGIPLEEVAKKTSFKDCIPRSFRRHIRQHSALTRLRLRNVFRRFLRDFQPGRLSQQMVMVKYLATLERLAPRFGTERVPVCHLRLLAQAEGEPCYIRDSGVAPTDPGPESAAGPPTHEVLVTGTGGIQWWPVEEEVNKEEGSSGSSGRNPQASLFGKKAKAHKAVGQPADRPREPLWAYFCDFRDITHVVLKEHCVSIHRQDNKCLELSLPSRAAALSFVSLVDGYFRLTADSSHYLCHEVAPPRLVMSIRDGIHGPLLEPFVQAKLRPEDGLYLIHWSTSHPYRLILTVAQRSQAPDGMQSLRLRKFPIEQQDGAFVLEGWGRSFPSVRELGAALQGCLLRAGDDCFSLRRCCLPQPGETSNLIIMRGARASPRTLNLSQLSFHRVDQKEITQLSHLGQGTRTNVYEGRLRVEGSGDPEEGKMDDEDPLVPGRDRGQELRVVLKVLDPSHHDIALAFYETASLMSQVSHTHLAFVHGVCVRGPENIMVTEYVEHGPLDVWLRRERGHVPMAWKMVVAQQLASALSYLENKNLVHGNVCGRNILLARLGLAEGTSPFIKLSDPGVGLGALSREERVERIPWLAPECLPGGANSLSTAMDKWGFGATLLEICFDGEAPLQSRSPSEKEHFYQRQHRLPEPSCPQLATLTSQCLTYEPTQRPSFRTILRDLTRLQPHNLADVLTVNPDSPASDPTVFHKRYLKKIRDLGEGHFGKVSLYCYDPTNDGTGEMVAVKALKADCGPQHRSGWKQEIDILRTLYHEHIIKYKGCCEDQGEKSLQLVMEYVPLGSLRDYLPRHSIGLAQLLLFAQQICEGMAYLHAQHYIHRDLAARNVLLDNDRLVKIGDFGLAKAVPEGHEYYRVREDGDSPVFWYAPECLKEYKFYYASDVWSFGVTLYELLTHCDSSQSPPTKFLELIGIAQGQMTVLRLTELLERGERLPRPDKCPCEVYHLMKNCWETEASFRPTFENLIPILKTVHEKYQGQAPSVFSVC

Chain of JAK1 (P23458 whole entry): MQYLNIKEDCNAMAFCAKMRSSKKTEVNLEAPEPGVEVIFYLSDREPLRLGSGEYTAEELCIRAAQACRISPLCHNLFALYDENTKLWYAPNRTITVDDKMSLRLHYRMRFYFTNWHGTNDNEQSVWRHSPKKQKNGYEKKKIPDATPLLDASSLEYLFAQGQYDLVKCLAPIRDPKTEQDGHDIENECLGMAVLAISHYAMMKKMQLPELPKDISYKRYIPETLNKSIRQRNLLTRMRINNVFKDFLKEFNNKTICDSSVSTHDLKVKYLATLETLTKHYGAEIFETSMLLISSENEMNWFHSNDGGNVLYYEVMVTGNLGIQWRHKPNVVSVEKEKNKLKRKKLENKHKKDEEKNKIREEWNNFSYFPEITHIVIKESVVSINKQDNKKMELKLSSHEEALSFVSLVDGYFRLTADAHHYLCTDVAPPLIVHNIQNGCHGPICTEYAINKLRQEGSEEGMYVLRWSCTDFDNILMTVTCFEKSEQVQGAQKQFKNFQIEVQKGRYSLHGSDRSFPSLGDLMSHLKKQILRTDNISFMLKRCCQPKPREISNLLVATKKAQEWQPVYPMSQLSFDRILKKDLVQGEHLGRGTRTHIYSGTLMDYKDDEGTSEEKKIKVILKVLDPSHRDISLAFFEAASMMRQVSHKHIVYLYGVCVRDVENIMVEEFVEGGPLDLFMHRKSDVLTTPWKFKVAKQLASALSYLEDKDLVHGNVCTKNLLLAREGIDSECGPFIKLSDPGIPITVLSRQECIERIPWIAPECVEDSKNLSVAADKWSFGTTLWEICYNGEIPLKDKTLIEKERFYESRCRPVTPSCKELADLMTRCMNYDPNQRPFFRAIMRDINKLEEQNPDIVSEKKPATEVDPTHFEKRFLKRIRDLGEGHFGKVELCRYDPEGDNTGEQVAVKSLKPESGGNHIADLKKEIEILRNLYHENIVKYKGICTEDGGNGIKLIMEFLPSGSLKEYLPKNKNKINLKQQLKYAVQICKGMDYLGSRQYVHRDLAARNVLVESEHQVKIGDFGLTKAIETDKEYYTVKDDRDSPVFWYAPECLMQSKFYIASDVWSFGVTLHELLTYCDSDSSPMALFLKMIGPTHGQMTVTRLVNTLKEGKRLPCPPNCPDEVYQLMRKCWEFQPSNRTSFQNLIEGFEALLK
Chain of JAK2 (O60674 whole entry): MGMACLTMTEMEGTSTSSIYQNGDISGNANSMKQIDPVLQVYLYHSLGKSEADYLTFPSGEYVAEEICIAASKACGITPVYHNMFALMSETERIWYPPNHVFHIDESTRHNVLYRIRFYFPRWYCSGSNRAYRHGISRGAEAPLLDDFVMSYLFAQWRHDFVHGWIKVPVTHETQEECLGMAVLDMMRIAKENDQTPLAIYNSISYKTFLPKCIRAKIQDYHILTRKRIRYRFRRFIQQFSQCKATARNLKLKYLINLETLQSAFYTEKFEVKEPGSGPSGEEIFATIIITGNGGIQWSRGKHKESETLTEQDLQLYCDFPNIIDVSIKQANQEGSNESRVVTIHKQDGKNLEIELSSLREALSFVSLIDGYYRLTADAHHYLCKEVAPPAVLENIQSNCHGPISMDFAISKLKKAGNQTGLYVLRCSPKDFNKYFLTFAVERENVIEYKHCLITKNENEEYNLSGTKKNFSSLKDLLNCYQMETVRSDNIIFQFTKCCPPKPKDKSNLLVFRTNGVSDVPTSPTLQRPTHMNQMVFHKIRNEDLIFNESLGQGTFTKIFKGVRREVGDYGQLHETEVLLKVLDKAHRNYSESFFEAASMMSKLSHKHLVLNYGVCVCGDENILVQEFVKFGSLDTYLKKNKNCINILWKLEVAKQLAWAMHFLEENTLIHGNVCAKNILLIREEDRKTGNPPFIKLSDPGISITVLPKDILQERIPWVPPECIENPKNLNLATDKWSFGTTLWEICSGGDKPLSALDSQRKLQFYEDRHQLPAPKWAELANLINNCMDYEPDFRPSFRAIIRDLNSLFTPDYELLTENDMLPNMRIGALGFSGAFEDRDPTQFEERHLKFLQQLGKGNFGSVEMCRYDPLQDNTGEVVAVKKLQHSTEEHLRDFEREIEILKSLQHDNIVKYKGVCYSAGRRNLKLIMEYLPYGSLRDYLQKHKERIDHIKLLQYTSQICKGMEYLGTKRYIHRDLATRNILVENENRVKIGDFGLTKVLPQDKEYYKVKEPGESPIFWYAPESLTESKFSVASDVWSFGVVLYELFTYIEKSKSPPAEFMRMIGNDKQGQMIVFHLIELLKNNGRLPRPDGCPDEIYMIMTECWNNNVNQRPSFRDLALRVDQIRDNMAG
Chain of JAK3 (P52333 whole entry): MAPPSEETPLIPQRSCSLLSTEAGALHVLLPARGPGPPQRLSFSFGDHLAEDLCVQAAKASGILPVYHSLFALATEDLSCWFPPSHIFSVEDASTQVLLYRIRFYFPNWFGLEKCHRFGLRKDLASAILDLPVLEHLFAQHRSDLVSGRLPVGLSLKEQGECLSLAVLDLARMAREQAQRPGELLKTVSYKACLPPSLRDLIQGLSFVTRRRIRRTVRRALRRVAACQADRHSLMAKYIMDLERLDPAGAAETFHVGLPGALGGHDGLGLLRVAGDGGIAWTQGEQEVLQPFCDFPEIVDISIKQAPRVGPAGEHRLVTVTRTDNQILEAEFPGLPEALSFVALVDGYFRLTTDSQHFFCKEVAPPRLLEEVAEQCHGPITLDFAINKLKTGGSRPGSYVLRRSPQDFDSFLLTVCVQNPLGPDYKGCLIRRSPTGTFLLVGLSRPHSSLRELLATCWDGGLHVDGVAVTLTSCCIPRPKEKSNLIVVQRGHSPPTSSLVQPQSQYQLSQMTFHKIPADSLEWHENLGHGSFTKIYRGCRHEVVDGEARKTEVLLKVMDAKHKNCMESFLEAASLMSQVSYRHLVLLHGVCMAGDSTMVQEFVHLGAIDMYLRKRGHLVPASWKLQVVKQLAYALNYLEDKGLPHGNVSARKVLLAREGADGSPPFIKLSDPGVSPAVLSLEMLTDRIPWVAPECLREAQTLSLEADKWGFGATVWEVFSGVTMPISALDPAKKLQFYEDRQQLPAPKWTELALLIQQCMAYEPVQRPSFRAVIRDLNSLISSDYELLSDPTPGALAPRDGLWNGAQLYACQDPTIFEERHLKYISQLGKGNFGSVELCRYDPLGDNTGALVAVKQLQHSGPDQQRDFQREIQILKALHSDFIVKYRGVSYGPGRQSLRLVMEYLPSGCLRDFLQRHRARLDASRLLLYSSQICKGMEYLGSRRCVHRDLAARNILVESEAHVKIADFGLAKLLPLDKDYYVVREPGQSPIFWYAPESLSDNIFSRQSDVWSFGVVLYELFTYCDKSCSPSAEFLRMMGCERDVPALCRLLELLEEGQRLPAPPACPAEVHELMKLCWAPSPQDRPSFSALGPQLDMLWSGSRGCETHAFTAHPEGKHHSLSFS

In the case of `CCc1cc(O)ccc1-c1ccc2c(-c3nc(C4=CCN(C5CCN(C)C5)CC4)c[nH]3)n[nH]c2c1F` (stereo not drawn) [Example 208], the Ki is 0.1 to 1 nM at JAK3, 0.1 to 1 nM on JAK1 and 1 to 10 nM on TYK2. Moreover, the IC50 in assay [1] was 10 to 31.6 nM. Besides, on JAK2, the “JAK2 pKi” value is given as “A (A represents a pKi value ≥10 (Ki≤0.1 nM))”.
On to `CCc1cc(O)ccc1-c1ccc2c(-c3nc(C4=CCN(C(C)CN)CC4)c[nH]3)n[nH]c2c1F` (stereo not drawn) [Example 213], for which the Ki on JAK3 is 0.1 to 1 nM; on JAK1, 0.1 to 1 nM; at JAK2, 0.1 to 1 nM; at TYK2, 10 to 100 nM. The IC50 in assay [1] is 100 to 316 nM.
In the case of `CCc1cc(O)ccc1-c1ccc2c(-c3nc(C4=CCN(CC(C)C)CC4)c[nH]3)n[nH]c2c1F` [Example 25], the Ki was 0.1 to 1 nM at JAK3, 0.1 to 1 nM at JAK1, 0.1 to 1 nM at JAK2 and 10 to 100 nM at TYK2. In assay [1], the IC50 was 10 to 31.6 nM.
`CCc1cc(O)ccc1-c1ccc2c(-c3nc(C4=CCN(C(C)C)CC4)c[nH]3)n[nH]c2c1` [Example 20]: the Ki is 0.1 to 1 nM at JAK3 and 1 to 10 nM at TYK2. Moreover, in assay [1], the IC50 was 3.16 to 10 nM. On JAK1, the “JAK1 pKi” value is on record as “A (A represents a pKi value ≥10 (Ki≤0.1 nM))”. For the same molecule, on JAK2, the “JAK2 pKi” value is given as “A (A represents a pKi value ≥10 (Ki≤0.1 nM))”.
For `CCc1cc(O)ccc1-c1ccc2c(-c3nc(C4=CCNCC4C)c[nH]3)n[nH]c2c1` (stereo not drawn) [Example 298], the Ki at JAK3, at JAK1, on JAK2 and on TYK2 was 0.1 to 1 nM each time. In addition, the IC50 in assay [1] was 10 to 31.6 nM.
`CCc1cc(O)ccc1-c1ccc2c(-c3nc(C4=CCCN(C5CCCN(C)C5)C4)c[nH]3)n[nH]c2c1F` (stereo not drawn) [Example 217]: the Ki at JAK3 was 0.1 to 1 nM; on JAK1, 1 to 10 nM; at JAK2, 0.1 to 1 nM; on TYK2, 1 to 10 nM. Also, the IC50 in assay [1] was 31.6 to 100 nM.
Regarding `CCc1cc(O)ccc1-c1ccc2c(-c3nc(C4=C(C)CNC4)c[nH]3)n[nH]c2c1F` [Example 293], the Ki on JAK3, at JAK1, at JAK2 and at TYK2 was 0.1 to 1 nM in each case. In addition, the IC50 in assay [1] was 3.16 to 10 nM.
In the case of `CCc1cc(O)ccc1-c1ccc2c(-c3nc(C4=CCN(C5CCN(C)CC5)C4)c[nH]3)n[nH]c2c1` [Example 199], the Ki at JAK3 and at TYK2 was 0.1 to 1 nM in each case. Moreover, in assay [1], the IC50 is 3.16 to 10 nM. Moreover, the “JAK1 pKi” value at JAK1 is “A (A represents a pKi value ≥10 (Ki≤0.1 nM))”. Moreover, the “JAK2 pKi” value on JAK2 is “A (A represents a pKi value ≥10 (Ki≤0.1 nM))”.
For the molecule `CCc1cc(O)ccc1-c1ccc2c(-c3nc(C4=CCN(CC)CC4)c[nH]3)n[nH]c2c1F` [Example 23], the Ki on JAK3 is 0.1 to 1 nM; at JAK1, 0.1 to 1 nM; on JAK2 it was 0.1 to 1 nM; at TYK2, 1 to 10 nM. Further, the IC50 in assay [1] was 3.16 to 10 nM.
Consider `CCc1cc(O)ccc1-c1ccc2c(-c3nc(C4=CCN(C[C@@H]5CCN5)CC4)c[nH]3)n[nH]c2c1F` [Example 390], for which the Ki at JAK3 was 0.1 to 1 nM; at JAK1, 0.1 to 1 nM; at TYK2, 1 to 10 nM. The IC50 in assay [1] was 100 to 316 nM. Further, on JAK2, the “JAK2 pKi” value was “A (A represents a pKi value ≥10 (Ki≤0.1 nM))”.
Consider `CCc1cc(O)ccc1-c1ccc2c(-c3nc(C4=CCN(CCN5CCOCC5)C4)c[nH]3)n[nH]c2c1F` [Example 206], for which the Ki at JAK3 was 0.1 to 1 nM; on JAK1, 0.1 to 1 nM; on TYK2, 1 to 10 nM. Also, the IC50 in assay [1] was 10 to 31.6 nM. On JAK2, the “JAK2 pKi” value was “A (A represents a pKi value ≥10 (Ki≤0.1 nM))”.
As to `CCCN1CC=C(c2c[nH]c(-c3n[nH]c4c(F)c(-c5ccc(O)cc5CC)ccc34)n2)CC1` [Example 24], the Ki is 0.1 to 1 nM on JAK3, 0.1 to 1 nM on JAK1 and 1 to 10 nM on TYK2. In addition, the IC50 in assay [1] was 3.16 to 10 nM. Besides, the “JAK2 pKi” value on JAK2 is “A (A represents a pKi value ≥10 (Ki≤0.1 nM))”.

Values taken from patent US20240092758A1, “IMIDAZOLO INDAZOLE COMPOUNDS AS JAK INHIBITORS” (Theravance Biopharma R&D IP, LLC, priority 2021, published 2024).
